Reference: ChEMBL document CHEMBL1770133, “Design of potent and selective GPR119 agonists for type II diabetes” (Bioorg Med Chem Lett, 2011)
In brackets after ≈: the same amount, converted by molar mass.

Key:
[1] = target: T1, Glucose-dependent insulinotropic receptor (Homo sapiens, UniProt Q8TDV5); experiment: Agonist activity at human GPR119 expressed in CHO cells co-expressing Galpha15 assessed as increase of intracellular cAMP accumulation after 60 mins by HTRF assay; assay type: functional, cell-based
T1 sequence (Q8TDV5 whole entry): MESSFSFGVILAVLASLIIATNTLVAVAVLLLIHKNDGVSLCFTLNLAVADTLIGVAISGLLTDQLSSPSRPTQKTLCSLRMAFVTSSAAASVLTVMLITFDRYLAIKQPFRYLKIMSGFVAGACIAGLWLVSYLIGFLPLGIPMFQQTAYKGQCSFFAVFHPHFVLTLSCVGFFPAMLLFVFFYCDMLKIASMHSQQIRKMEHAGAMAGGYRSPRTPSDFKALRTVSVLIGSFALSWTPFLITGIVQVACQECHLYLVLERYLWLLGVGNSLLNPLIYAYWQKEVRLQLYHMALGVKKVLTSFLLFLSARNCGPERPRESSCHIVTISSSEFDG

[2] = target: T2, Glucose-dependent insulinotropic receptor (Mus musculus, UniProt Q7TQP3); experiment: Agonist activity at mouse GPR119 expressed in CHO cells co-expressing Galpha15 assessed as increase of intracellular cAMP accumulation after 60 mins by HTRF assay; assay type: functional, cell-based
T2 sequence (Q7TQP3 whole entry): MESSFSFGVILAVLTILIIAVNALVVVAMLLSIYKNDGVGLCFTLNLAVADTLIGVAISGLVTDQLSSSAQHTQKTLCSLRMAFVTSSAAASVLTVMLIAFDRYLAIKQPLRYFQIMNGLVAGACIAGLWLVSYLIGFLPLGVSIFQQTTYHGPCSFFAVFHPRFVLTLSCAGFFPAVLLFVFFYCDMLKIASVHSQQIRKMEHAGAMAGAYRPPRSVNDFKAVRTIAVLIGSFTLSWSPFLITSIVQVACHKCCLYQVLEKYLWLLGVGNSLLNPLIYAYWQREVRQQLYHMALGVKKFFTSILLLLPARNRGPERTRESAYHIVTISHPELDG

[3] = target: T3, Voltage-gated inwardly rectifying potassium channel KCNH2 (Homo sapiens, UniProt Q12809); experiment: Inhibition of human ERG
Mus musculus [4] = experiment: Antidiabetic activity in high fat fed C57BL/6 mouse assessed as change in AUC of blood glucose level at 30 mg/kg, po qd administered 1 hr before glucose challenge measured up to 120 mins by oral glucose tolerance test relative to control; assay type: functional, C57BL6
Canis familiaris = species: Canis familiaris; experiment: Cardiotoxicity in dog assessed as QTc prolongation; assay type: toxicity, organism-based, Canis lupus familiaris; conditions: in vivo
Mus musculus [5] = experiment: Antidiabetic activity in high fat fed po dosed C57BL/6 mouse assessed as change in AUC of blood glucose level administered 1 hr before glucose challenge measured up to 120 mins by oral glucose tolerance test; assay type: functional; conditions: C57BL6, Blood, read-out: MED
[6] = Solubility of compound in PEG400 after 3 to 7 days; assay type: physicochemical
[7] = target: T4, Glucose-dependent insulinotropic receptor (Homo sapiens) (UniProt Q8TDV5); experiment: Agonist activity at human GPR119 expressed in CHO cells co-expressing Galpha15 assessed as increase of intracellular cAMP accumulation at 10 uM after 60 mins by HTRF assay; assay type: functional, cell-based
T4 sequence (whole entry): T1 sequence (Q8TDV5 whole entry)

[8] = target: T5, Glucose-dependent insulinotropic receptor (Mus musculus) (UniProt Q7TQP3); experiment: Agonist activity at mouse GPR119 expressed in CHO cells co-expressing Galpha15 assessed as increase of intracellular cAMP accumulation at 10 uM after 60 mins by HTRF assay; assay type: functional, cell-based
T5 sequence (whole entry): T2 sequence (Q7TQP3 whole entry)

Mus musculus [9] = experiment: Antidiabetic activity in high fat fed C57BL/6 mouse assessed as change in AUC of blood glucose level at 3 mg/kg, po qd administered 1 hr before glucose challenge measured up to 120 mins by oral glucose tolerance test relative to control; assay type: functional, C57BL6
Mus musculus [10] = experiment: Antidiabetic activity in high fat fed C57BL/6 mouse assessed as change in AUC of blood glucose level at 1 mg/kg, po qd administered 1 hr before glucose challenge measured up to 120 mins by oral glucose tolerance test relative to control; assay type: functional, C57BL6
Mus musculus [11] = experiment: Antidiabetic activity in high fat fed C57BL/6 mouse assessed as change in AUC of blood glucose level at 10 mg/kg, po qd administered 1 hr before glucose challenge measured up to 120 mins by oral glucose tolerance test relative to control; assay type: functional, C57BL6
[12] = target: T3, Voltage-gated inwardly rectifying potassium channel KCNH2; experiment: Inhibition of human ERG by patch clamp technique
Mus musculus [13] = experiment: Dose normalized AUC in mouse at 1 mg/kg, iv and 10 mg/kg, po; assay type: ADME, organism-based; conditions: in vivo
[14] = Clearance in mouse at 1 mg/kg, iv and 10 mg/kg, po; assay type: ADME, organism-based; conditions: in vivo
[15] = Volume of distribution at steady state in mouse at 1 mg/kg, iv and 10 mg/kg, po; assay type: ADME, organism-based; conditions: in vivo, read-out: Vdss
[16] = Half life in mouse at 1 mg/kg, iv and 10 mg/kg, po; assay type: ADME, organism-based; conditions: in vivo

T3 sequence (Q12809 whole entry): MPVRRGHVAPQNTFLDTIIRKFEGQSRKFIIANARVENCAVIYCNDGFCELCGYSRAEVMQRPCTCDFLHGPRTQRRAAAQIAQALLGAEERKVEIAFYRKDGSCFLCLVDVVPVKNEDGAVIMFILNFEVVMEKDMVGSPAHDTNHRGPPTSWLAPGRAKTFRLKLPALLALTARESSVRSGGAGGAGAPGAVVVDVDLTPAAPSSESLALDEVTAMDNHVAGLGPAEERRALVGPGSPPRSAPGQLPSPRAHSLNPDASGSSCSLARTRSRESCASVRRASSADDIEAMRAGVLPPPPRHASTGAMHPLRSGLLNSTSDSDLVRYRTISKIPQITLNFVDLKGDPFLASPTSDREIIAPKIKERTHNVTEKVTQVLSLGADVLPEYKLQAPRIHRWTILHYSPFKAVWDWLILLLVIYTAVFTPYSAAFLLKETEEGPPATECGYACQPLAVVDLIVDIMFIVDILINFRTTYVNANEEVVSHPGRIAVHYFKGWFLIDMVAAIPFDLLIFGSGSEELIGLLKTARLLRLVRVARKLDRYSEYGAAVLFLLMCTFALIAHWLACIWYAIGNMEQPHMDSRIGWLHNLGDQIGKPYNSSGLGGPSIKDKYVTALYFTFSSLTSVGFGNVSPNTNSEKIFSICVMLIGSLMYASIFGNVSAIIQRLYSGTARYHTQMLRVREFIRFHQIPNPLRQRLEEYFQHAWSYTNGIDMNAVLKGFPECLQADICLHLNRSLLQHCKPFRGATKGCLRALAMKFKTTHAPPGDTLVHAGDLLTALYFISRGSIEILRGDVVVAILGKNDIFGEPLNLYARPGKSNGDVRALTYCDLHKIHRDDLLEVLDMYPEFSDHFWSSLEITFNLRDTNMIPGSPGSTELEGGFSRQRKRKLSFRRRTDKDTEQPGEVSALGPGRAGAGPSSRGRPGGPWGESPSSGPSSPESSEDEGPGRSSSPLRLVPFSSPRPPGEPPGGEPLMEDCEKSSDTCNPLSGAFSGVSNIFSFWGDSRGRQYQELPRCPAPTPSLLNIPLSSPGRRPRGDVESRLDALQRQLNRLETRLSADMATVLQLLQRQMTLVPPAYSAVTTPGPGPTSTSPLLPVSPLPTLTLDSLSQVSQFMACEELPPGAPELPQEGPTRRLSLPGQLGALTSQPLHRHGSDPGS

SMILES	EC50 [1] [nM]	EC50 [2] [nM]	also measured
CC(C)(C)OC(=O)N1CCC(C2CCN(c3ccccn3)CC2)CC1	831	2500	–
Cc1cc(N2CCC(C3CCN(c4ncc(Cl)cn4)CC3)CC2)nc(C#N)n1	2	11	Activity (Mus musculus [4]): 37%
CS(=O)(=O)c1ccc(N2CCC(C3CCN(c4ccccn4)CC3)CC2)cc1	39	682	–
CS(=O)(=O)c1ccc(N2CCC(C3CCN(c4ccc(C#N)cn4)CC3)CC2)cc1	62	41	–
O=C(NC1CC1)c1ccc(OCC2CC2C2CCN(c3ncc(Cl)cn3)CC2)cc1F (racemic; 52)	20	23	–
CC(=O)c1ccc(N2CCC(C3CCN(C(=O)OC(C)(C)C)CC3)CC2)cc1	25	341	–
CC(C)(C)OC(=O)N1CCC(C2CCN(c3ccc(C(N)=O)cc3)CC2)CC1	76	165	–
Cc1ccnc(N2CCC(C3CCN(c4ccc(S(C)(=O)=O)cc4)CC3)CC2)n1	–	–	Activity [7]: < 10%; Activity [8]: < 10%
O=C(NC1CC1)c1ccc(OCCC2CC2C2CCN(c3ncc(Cl)cn3)CC2)cc1F (racemic)	0.3	0.4	IC50 [3]: > 30000 nM
Cc1cnc(N2CCC(C3CCN(c4cc(C)nc(C#N)n4)CC3)CC2)cn1	19	64	Activity (Mus musculus [4]): 35%; Activity (Mus musculus [9]): 26%; Activity (Mus musculus [10]): 7%; Activity (Mus musculus [11]): 30%
Cc1cnc(N2CCC(C3CCN(c4cc(C#N)nc(C)n4)CC3)CC2)nc1	8	10	IC50 [3]: 1800 nM; Activity (Mus musculus [4]): 46%
Cc1ccc(N2CCC(C3CCN(c4ccc(S(C)(=O)=O)cc4)CC3)CC2)nc1	18	73	–
O=C(NC1CC1)c1ccc(OCCC2CC2C2CCN(c3ncc(Cl)cn3)CC2)cc1F (single isomer, unassigned; (+))	14	5	IC50 [3]: > 30000 nM
O=C(NC1CC1)c1ccc(OCC2CC2CC2CCN(c3ncc(Cl)cn3)CC2)cc1F (racemic; 56)	18	36	IC50 [3]: 1200 nM
O=C(NC1CC1)c1ccc(OCC2CC2C2CCN(c3ncc(Cl)cn3)CC2)cc1F (racemic; 51)	38	9	–
CC(C)(C)OC(=O)N1CCC(C2CCN(c3ncccn3)CC2)CC1	526	523	–

SMILES	EC50 [1] [nM]	EC50 [2] [nM]	also measured
Clc1cnc(N2CCC([C@H]3C[C@H]3CCOc3ccc(-n4ccnn4)cn3)CC2)nc1	2	4	IC50 [12]: 44000 nM; minimal effective dose (Mus musculus [5]): 1 mg/kg; solubility [6]: 11400 µg/mL (≈ 26.8 mM)
CC(C)(C)OC(=O)N1CCC(C2CCN(c3cccc(S(C)(=O)=O)c3)CC2)CC1	1900	–	Activity [8]: < 10%
CC(C)(C)OC(=O)N1CCC(C2CCN(c3ccnc(C#N)n3)CC2)CC1	6	11	–
CS(=O)(=O)c1ccc(N2CCC(C3CCN(c4ncc(Cl)cn4)CC3)CC2)cc1	5	8	–
Cc1ccccc1N1CCC(C2CCN(C(=O)OC(C)(C)C)CC2)CC1	–	–	Activity [7]: < 10%; Activity [8]: < 10%
CS(=O)(=O)c1ccc(N2CCC(C3CCN(c4ccc(F)cn4)CC3)CC2)cc1	19	206	–
CS(=O)(=O)c1ccc(N2CCC(C3CCN(c4ccc(Cl)cn4)CC3)CC2)cc1	48	131	AUC (Mus musculus [13]): 19.3 µM·kg·h/mg; clearance [14]: 2 mL/min/kg; Vd [15]: 2.3 L/kg; half-life [16]: 13.5 h
CC(C)(C)OC(=O)N1CCC(C2CCN(c3cccnc3)CC2)CC1	3600	–	Activity [8]: < 10%
CC(C)(C)OC(=O)N1CCC(C2CCN(c3cc(C#N)ncn3)CC2)CC1	6	31	–
CC(C)(C)OC(=O)N1CCC(C2CCN(c3ccccc3)CC2)CC1	1400	–	Activity [8]: < 10%
CS(=O)(=O)c1ccc(N2CCC(C3CCN(c4cnccn4)CC3)CC2)cc1	201	239	–
CC(C)(C)OC(=O)N1CCC(C2CCN(c3ccc(S(C)(=O)=O)cc3)CC2)CC1	22	36	AUC (Mus musculus [13]): 0.09 µM·kg·h/mg; clearance [14]: 120 mL/min/kg; Vd [15]: 6.9 L/kg; half-life [16]: 0.6 h
Cc1cc(N2CCC(C3CCN(C(=O)OC(C)(C)C)CC3)CC2)nc(C#N)n1	1	2	–
CC(C)(C)OC(=O)N1CCC(C2CCN(c3cccc(C(N)=O)c3)CC2)CC1	–	–	Activity [7]: < 10%; Activity [8]: < 10%
C[S+]([O-])c1ccc(N2CCC(C3CCN(C(=O)OC(C)(C)C)CC3)CC2)cc1 (configuration not stated)	11	132	–
CS(=O)(=O)c1ccc(OCC[C@@H]2C[C@@H]2C2CCN(c3ncc(Cl)cn3)CC2)nc1	4	4	IC50 [12]: 19000 nM; AUC (Mus musculus [13]): 12.1 µM·kg·h/mg; Activity (Canis familiaris): Non-toxic; minimal effective dose (Mus musculus [5]): 1 mg/kg; clearance [14]: 2.1 mL/min/kg; solubility [6]: 7100 µg/mL (≈ 16.2 mM); Vd [15]: 2.1 L/kg; half-life [16]: 12.4 h

Further lines, with some results ahead:

EC50 [1] [nM]	EC50 [2] [nM]	SMILES	also measured
9	18	O=C(NC1CC1)c1ccc(OCC2CC2CC2CCN(c3ncc(Cl)cn3)CC2)cc1F (racemic; 57)	IC50 [3]: > 30000 nM
2	2	Cc1cnc(N2CCC([C@H]3C[C@H]3CCOc3nc(C)cc(C#N)n3)CC2)nc1	Activity (Canis familiaris): Toxic; minimal effective dose (Mus musculus [5]): 0.01 mg/kg; solubility [6]: 24800 µg/mL (≈ 65.5 mM)
30	82	Cc1cnc(N2CCC(C3CCN(c4cc(C#N)nc(C)n4)CC3)CC2)cn1	IC50 [3]: 5400 nM; Activity (Mus musculus [4]): 7%
3	2	O=C(NC1CC1)c1ccc(OCCC2CC2C2CCN(c3ncc(Cl)cn3)CC2)cc1F (single isomer, unassigned; (-))	IC50 [3]: 2600 nM
338	1900	Cc1ccc(N2CCC(C3CCN(C(=O)OC(C)(C)C)CC3)CC2)cc1	–
2	2	Cc1nc(C#N)cc(N2CCC(C3CCN(C(=O)OC(C)(C)C)CC3)CC2)n1	–
4	6	Clc1cnc(N2CCC([C@H]3C[C@H]3CCOc3ccc(-n4ccnn4)cc3)CC2)nc1	minimal effective dose (Mus musculus [5]): 10 mg/kg; solubility [6]: 5000 µg/mL (≈ 11.8 mM)
103	142	CC(C)(C)OC(=O)N1CCC(C2CCN(c3cnccn3)CC2)CC1	–
57	45	Cc1cnc(N2CCC(C3CCN(c4ccc(S(C)(=O)=O)cc4)CC3)CC2)nc1	–
0.2	0.8	O=C(NC1CC1)c1ccc(OCCCC2CC2CCCC2CCN(c3ncc(Cl)cn3)CC2)cc1F (racemic)	–
13	8	CS(=O)(=O)c1ccc(N2CCC(C3CCN(c4ccc(C(F)(F)F)cn4)CC3)CC2)cc1	–
116	379	CC(C)(C)OC(=O)N1CCC(C2CCN(c3ccncn3)CC2)CC1	–
98	887	CS(=O)(=O)c1ccc(N2CCC(C3CCN(c4ncccn4)CC3)CC2)cc1	–
600	513	CSc1ccc(N2CCC(C3CCN(C(=O)OC(C)(C)C)CC3)CC2)cc1	–
514	–	Cc1cccc(N2CCC(C3CCN(C(=O)OC(C)(C)C)CC3)CC2)c1	Activity [8]: < 10%
